“Also recorded” adds a separate entry of the source. Like-named read-outs stand apart in the source and are kept apart here. Residues, ends and D or L forms follow the SMILES beside them.

For series [1], the target named is T1, human isolated umbilical vein (BK B2R; histamine H1R) (Homo sapiens, UniProt P30411).
T1 sequence (P30411 1-391): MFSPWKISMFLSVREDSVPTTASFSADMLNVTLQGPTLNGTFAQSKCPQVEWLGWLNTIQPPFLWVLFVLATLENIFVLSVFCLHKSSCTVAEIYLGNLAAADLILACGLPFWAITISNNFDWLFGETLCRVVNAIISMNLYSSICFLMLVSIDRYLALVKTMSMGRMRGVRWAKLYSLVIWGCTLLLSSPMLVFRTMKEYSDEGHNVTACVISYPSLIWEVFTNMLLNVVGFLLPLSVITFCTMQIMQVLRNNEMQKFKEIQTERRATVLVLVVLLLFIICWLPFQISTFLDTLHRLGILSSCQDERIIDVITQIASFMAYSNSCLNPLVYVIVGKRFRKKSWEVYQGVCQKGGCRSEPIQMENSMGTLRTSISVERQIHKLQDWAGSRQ
From the text:
The institutional research ethics board (CHU de Québec) approved the anonymous use of human umbilical cord segments obtained after elective cesarean section deliveries (file number: 2012-323). Informed written consent was obtained from mothers.
(§1) Results are presented as means ± s.e.m. Radioligand binding data were fitted by nonlinear regression to a one-site competition equation using a least-square method (Prism 5.0; GraphPad Software Inc., San Diego, CA, USA) and IC50 values calculated from this procedure. The same computer program was used to draw concentration-effect curves (least square fitting of sigmoidal dose–response equation with variable slope) and to derive contractile EC50 values. Data describing baseline values of heart rate and mean arterial blood pressure and hypotensive responses to peptides in anesthetized rats were assessed by using one-way analysis of variance (ANOVA) followed by the Dunnett’s test (repeated comparison with a common control). The effects of drugs on the hypotensive responses to each dose of MK were assessed by using ANOVA followed by the Dunnett’s test.

Series [2] is described as follows: LC-MS of MK incubated with human umbilical vein ring. The series is classed as in vitro ADME. The settings on record: 37 °C; for fragment generated from MK: MK 1 µM in Krebs with umbilical vein ring, 5 or 15 min, LC-MS, duplicate; for increase of fragment ion intensity on reaction with tissue: vs. contaminant in commercial MK, MK 1 µM. The method, then:
Synthetic MK (1 µM) was submitted to digestion in 2 ml of sterile-filtered Krebs solution in the presence of a freshly prepared ring of human umbilical vein (wet weight 25–37 mg). The tubes containing these materials were incubated at 37 °C for 5 or 15 min; the tissues were then removed and five volumes of cold ethanol (10 ml) were added to each tube. The tubes were incubated for 1 h on ice, centrifuged at 10,000 g to remove precipitated proteins and the kinin-containing supernatants were collected (procedure previously validated, [Raymond et al., 1995]). The supernatants were then completely evaporated to dryness in a Speedvac system and reconstituted in a small volume of water. Peptides were desalted on stage tip (C18), vacuum dried and then resuspended into 0.1% formic acid. One hundred fmol of each sample (starting MK quantity) was analyzed by mass spectrometry.
Mass spectrometry: peptide samples were separated by online reversed-phase (RP) nanoscale capillary liquid chromatography (nanoLC) and analyzed by electrospray mass spectrometry (ES MS/MS). The experiments were performed with a Ekspert NanoLC425 (Eksigent) coupled to a 5600+ mass spectrometer (AB Sciex, Framingham, MA, USA) equipped with a nanoelectrospray ion source. Peptide separation took place on a picofrit column (Reprosil 3u, 120A C18, 15 cm × 0.075 mm internal diameter). Peptides were eluted with a linear gradient from 5–35% solvent B (acetonitrile, 0.1% formic acid) in 35 min, at 300 nL/min. Mass spectra were acquired using a data dependent acquisition mode using Analyst software version 1.7. […] Dynamic exclusion was set for a period of 3 s and a tolerance of 100 ppm
Database searching: MGF peak list files were created using Protein Pilot version 5.0 software (Sciex) utilizing the Paragon and Progroup algorithms. MGF sample files were then analyzed using Mascot (Matrix Science, London, UK; version 2.5.1).
Mascot was set up to search the MK sequence assuming that the digestion enzyme was non-specific. Mascot was searched with a fragment ion mass tolerance of 0.100 Da and a parent ion tolerance of 0.100 Da. Deamidation of asparagine and glutamine and oxidation of methionine were specified in Mascot as variable modifications. Scaffold (version Scaffold_4.7.1; Proteome Software Inc., Portland, OR, USA) was used to validate MS/MS based peptide and protein identifications.
Data processing: Peak View 1.2.0.1 (Sciex) was used to extract the specific precursor masses and calculate the area under the curve. Extracted ion chromatoram (XIC) were generated from the TOF MS using a peak width of 0.05.

Another series has as its system male Sprague-Dawley rats. The conditions noted are these: for Basal mean arterial blood pressure after pre-treatment / Basal heart rate after pre-treatment: 15 min after i.v., enalaprilat 0.1 mg/kg n=6, icatibant 25 µg/kg n=6, pyrilamine 5 mg/kg n=16, means ± s.e.m.; for Basal mean arterial blood pressure after pre-treatment: control 96.5 ± 2.5; for Basal heart rate after pre-treatment: control 351 ± 10, * P < 0.01 vs control; for effect of pretreatment on hypotensive effect of MK: enalaprilat 0.1 mg/kg, icatibant 25 µg/kg, 15 min before MK. Here is the method: All surgical and experimental procedures were reviewed and approved by the Animal Care and Handling Committee of Laval University, in accordance with the Canadian Council on Animal Care (file no. 2012-223). Experiments were performed on male Sprague-Dawley rats (300–375 g) purchased from Charles River Laboratories (St-Constant, Qc, Canada). Only animals of the male gender have been studied to be consistent with related and recently published data ([Jean et al., 2016a]). The rats were housed in a temperature-controlled room (22 ± 1 °C) on a 12 h/12 h light-dark cycle (lights on at 0600) and had free access to normal chow diet and tap water. They were allowed to acclimate to their environmental conditions for one week prior to being studied. At the end of the acclimation period, the rats were anesthetised with sodium pentobarbital (50 mg kg^−1, i.p., supplemented as required) and had one catheter implanted into the right jugular vein (for intravenous ( i.v.) injection) and one into the left femoral artery (for direct and continuous measurement of blood pressure and heart rate as previously described, [Jean et al., 2016a]). In some experiments, a miniaturized pulsed Doppler flow probe ([Haywood et al., 1981]) was implanted around the distal abdominal aorta (below the level of the ileocaecal artery) through a midline abdominal incision to monitor changes in hindquarter hemodynamic, according to the method previously developed by [Gardiner & Bennett (1988)] and as previously described ([Bachelard et al., 1992]; [Jean et al., 2016a]). Experiments started at least 30 min following the end of surgery in anesthetised rats.
Baseline heart rate and phasic and mean arterial blood pressure were recorded over a period of 15 min in anesthetized rats. […] Peptides were dissolved in isotonic saline (0.9% NaCl) containing 0.1% BSA to prevent the adsorption of peptide to the glassware and plastic surfaces. All i.v. injections were given as 100 µl boluses which were washed in with a further 100 µl of saline (the dead space of the catheter). Only one peptide was tested per group of rats and each injection started with saline-BSA 0.1% followed by the lowest dose of peptide. The next dose was administered once all recorded cardiovascular parameters had returned to baseline after the previous injection (usually 2–10 min). At the end of the experiments each animal was euthanized with an overdose of sodium pentobarbital (240 mg/kg, i.v.).
In these experiments, enalaprilat was intravenously administered as bolus (0.1 mg/kg, 0.1 ml) following a 10 min period of baseline measurements of heart rate and blood pressure. Fifteen minutes later, a dose–response curve to MK was obtained, as described above. […] In these experiments, icatibant was intravenously administered as bolus (25 µg/kg, 0.1 ml) 15 min before the i.v. injection of increasing doses of MK, as above. […] In these experiments, pyrilamine was intravenously administered as bolus (5 mg/kg, 0.1 ml) 15 min before the i.v. injection of increasing doses of MK, as above.
as §1, with “control).” for “control). The effects of drugs on the hypotensive responses to each dose of MK were assessed by using ANOVA followed by the Dunnett’s test.”

Turning to `CC(C)C[C@H](NC(=O)[C@H]1O[C@@H]1C(=O)O)C(=O)NCCCCN=C(N)N` [E-64], the “effect of protease/peptidase inhibitor on contractile potency of MK” value (“effect of protease/peptidase inhibitor” below) in series [1] (inhibitor 30 min before MK) is given as “failed to change the concentration-effect curve of MK”. On to `O=C([O-])CN(CCN(CC(=O)[O-])CC(=O)[O-])CC(=O)[O-].[Ca+2].[Na+].[Na+]` [EDTA calcium disodium], for which the “effect of protease/peptidase inhibitor” value in series [1] is reported as “The same applied”. For `N=C(N)NCCC[C@H](NC(=O)[C@H](Cc1ccccc1)NC(=O)[C@@H]1CCCN1C(=O)[C@H](CO)NC(=O)[C@H](Cc1ccccc1)NC(=O)CNC(=O)[C@@H]1CCCN1C(=O)[C@@H]1CCCN1C(=O)[C@H](CCCNC(=N)N)NC(=O)[C@@H]1CCCN1C(=O)CN)C(=O)O` [Gly-Pro-BK] (H-GPRPPGFSPFR-OH), in series [2], the “fragment generated from MK” value was “evidenced in a time-dependent manner; also recorded: metabolite that accumulates” and the “increase of fragment ion intensity on reaction with tissue” value was 3-4 -fold. `N=C(N)NCCC[C@H](NC(=O)[C@H](Cc1ccccc1)NC(=O)[C@@H]1CCCN1C(=O)[C@H](CO)NC(=O)[C@H](Cc1ccccc1)NC(=O)CNC(=O)[C@@H]1CCCN1C(=O)[C@@H]1CCCN1C(=O)[C@H](CCCNC(=N)N)NC(=O)[C@@H]1CCCN1C(=O)CNC(=O)[C@@H](N)CCCCN)C(=O)O` [Lys-Gly-Pro-BK] (H-KGPRPPGFSPFR-OH): in series [2], the “fragment generated from MK” value is given as “evidenced in a time-dependent manner; also recorded: major C-terminal metabolite” and the “increase of fragment ion intensity on reaction with tissue” value was 3-4 -fold. In the case of `C[C@H](N[C@@H](CCc1ccccc1)C(=O)O)C(=O)N1CCC[C@H]1C(=O)O` [enalaprilat], in the series with male Sprague-Dawley rats, the “Basal mean arterial blood pressure after pre-treatment” value came out at 94.9 ± 4.6 and the “Basal heart rate after pre-treatment” value is “slight but significant increase in basal HR”. Also, the “Basal heart rate after pre-treatment” value in the series with male Sprague-Dawley rats (listed as Enalaprilat) is 417 ± 13^*. The “effect of pretreatment on hypotensive effect of MK” value with male Sprague-Dawley rats (pyrilamine 5 mg/kg i.v.) is reported as “not significantly potentiated”. On to `CC(=O)N[C@@H](CC(C)C)C(=O)N[C@@H](CC(C)C)C(=O)N[C@H](C=O)CCCNC(=N)N` [leupeptin], for which the “effect of protease/peptidase inhibitor” value in series [1] (inhibitor 30 min before MK) is “The same applied”.

In the case of `O=C(N[C@H]1CCS[C@H]2CCC[C@@H](C(=O)O)N2C1=O)[C@@H](S)Cc1ccccc1` [omapatrilat], the “effect of protease/peptidase inhibitor” value in series [1] (inhibitor 30 min before MK) was “failed to modify the contractile effect of MK”. Still for that read-out and setting: with `Cl.NCCc1ccc(S(=O)(=O)F)cc1` [pefabloc SC] the entry was “failed to change the concentration-effect curve of MK”. For the molecule `COc1ccc(CN(CCN(C)C)c2ccccn2)cc1` [pyrilamine], in the series with male Sprague-Dawley rats, the “Basal mean arterial blood pressure after pre-treatment” value worked out at 87.4 ± 2.7 and the “Basal heart rate after pre-treatment” value was determined as 335 ± 6.1. For the same molecule, the “effect of pretreatment on hypotensive effect of MK” value in the series with male Sprague-Dawley rats (pyrilamine 5 mg/kg i.v.) was “did not antagonize the effects of MK”. The “effect of pretreatment on hypotensive effect of histamine” value in the series with male Sprague-Dawley rats (pyrilamine 5 mg/kg i.v., histamine 6.4 µg/kg i.v.) was “abated the hypotensive effect of histamine”. Further, the “effect of receptor antagonist on MK-induced contraction” value in series [1] (antagonist 1 µM, 30 min before MK) is reported as “did not reduce the venous effect of MK”. Further, the “effect of antagonist on histamine-induced contraction” value in series [1] (antagonist 1 µM, 30 min before histamine) was “profoundly and competitively inhibiting”.

Consider “DLPKINRKGPRPP [N-terminal fragment of MK]”, for which the “fragment generated from MK” value in series [2] is “Abundant”. Take “DLPKINRKGPRPPGF [N-terminal fragment of MK]”: the “fragment generated from MK” value in series [2] is listed as “Abundant”.

Values taken from article PMC5248581 (PeerJ, 2017).
